In US10865208B2, “ATG7 inhibitors and the uses thereof” (Millennium Pharmaceuticals, Inc., priority 2016, dated 2020) one finds IC50 and inhibition data, which are given here for 23 compounds.

The target of the assay is recombinant human His-ATG7 enzyme (Homo sapiens (Human), UniProt O95352). Description: ATG7 Enzyme Assay (HTRF/FRET, ATG3-GST and Flag-Gabarap). The note with it: for inhibition at 0.111 µM: Concentration 0.111 μM; for inhibition at 0.111 µM / inhibition at 0.123 µM / inhibition at 0.069 µM: read-out: Percent Inhibition; for inhibition at 0.123 µM: Concentration 0.123 μM; for inhibition at 0.069 µM: Concentration 0.069 μM. It counts as biochemical. The method in brief: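 0.15 nM His-ATG7 was reacted with 5 nM ATG3-GST, 5 nM Flag-Gabarap and 10 μM ATP in HEPES pH 7.5 containing MgCl2, GSH and TCEP for 105 min at 24° C, then stopped with EDTA/KF. Eu-anti-Flag and anti-GST-APC HTRF was read after 2 h. Results are given as single-concentration % inhibition or IC50.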
For orientation: TR-FRET usually uses a lanthanide donor and a delayed reading to cut background.

Chain of recombinant human His-ATG7 enzyme (O95352 whole entry): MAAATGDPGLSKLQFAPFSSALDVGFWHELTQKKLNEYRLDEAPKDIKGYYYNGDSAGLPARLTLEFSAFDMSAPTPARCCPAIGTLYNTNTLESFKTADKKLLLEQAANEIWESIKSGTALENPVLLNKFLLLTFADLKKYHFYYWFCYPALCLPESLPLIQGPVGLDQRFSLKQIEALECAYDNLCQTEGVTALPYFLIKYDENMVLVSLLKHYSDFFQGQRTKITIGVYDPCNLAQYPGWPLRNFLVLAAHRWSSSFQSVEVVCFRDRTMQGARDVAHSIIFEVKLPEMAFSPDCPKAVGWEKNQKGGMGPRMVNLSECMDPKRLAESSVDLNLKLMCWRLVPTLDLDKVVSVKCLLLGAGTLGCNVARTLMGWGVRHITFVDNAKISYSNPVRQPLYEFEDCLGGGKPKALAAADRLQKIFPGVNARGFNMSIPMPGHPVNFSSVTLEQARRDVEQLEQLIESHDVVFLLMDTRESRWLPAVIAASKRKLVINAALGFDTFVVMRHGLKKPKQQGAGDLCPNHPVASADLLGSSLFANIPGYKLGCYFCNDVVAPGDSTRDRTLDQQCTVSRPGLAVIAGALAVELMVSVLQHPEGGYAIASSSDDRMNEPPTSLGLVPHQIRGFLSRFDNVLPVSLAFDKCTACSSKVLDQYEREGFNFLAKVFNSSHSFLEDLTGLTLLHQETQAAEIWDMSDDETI

A word on the IC50: it is the concentration that inhibits the measured activity by half. In general, inhibition refers to the percentage by which the read-out fell short of the control. As to `Cc1cccc(Sc2nn([C@@H]3O[C@H](COS(N)(=O)=O)[C@@H](O)[C@@H]3F)c3ncnc(N)c23)n1` [Compound I-102, [(2R,3R,4S,5R)-5-{4-amino-3-[(6-methylpyridin-2-yl)sulfanyl]-1H-pyrazolo[3,4-d]pyrimidin-1-yl}-4-fluoro-3-hydroxytetrahydrofuran-2-yl]methyl sulfamate], the IC50 lay in the range of 50 to 100 nM and the inhibition at 0.111 µM stood at 68%.
With `Cc1nn([C@H]2C[C@H](O)[C@H](COS(N)(=O)=O)O2)c2ncnc(N)c12` [Compound I-218, [(2S,3S,5R)-5-(4-amino-3-methyl-1H-pyrazolo[3,4-d]pyrimidin-1-yl)-3-hydroxytetrahydrofuran-2-yl]methyl Sulfamate], the IC50 is more than 500 nM and the inhibition at 0.111 µM stood at 8%.
Take `Nc1ncnc2c1c(OCc1ccccc1)nn2[C@@H]1O[C@H](COS(N)(=O)=O)[C@@H](O)[C@H]1O` [Compound I-76, {(2R,3S,4R,5R)-5-[4-amino-3-(benzyloxy)-1H-pyrazolo[3,4-d]pyrimidin-1-yl]-3,4-dihydroxytetrahydrofuran-2-yl}methyl Sulfamate]: the IC50 lay within 100 to 500 nM and the inhibition at 0.123 µM turned out to be 31%.
For `CC(CO)Sc1nn([C@@H]2O[C@H](COS(N)(=O)=O)[C@@H](O)[C@@H]2F)c2ncnc(N)c12` (mixture of isomers) [Compound I-144, [(2R,3R,4S,5R)-5-(4-amino-3-{[(2R)-1-hydroxypropan-2-yl]sulfanyl}-1H-pyrazolo[3,4-d]pyrimidin-1-yl)-4-fluoro-3-hydroxytetrahydrofuran-2-yl]methyl sulfamate and [(2R,3R,4S,5R)-5-(4-amino-3-{[(2S)-1-hydroxypropan-2-yl]sulfanyl}-1H-pyrazolo[3,4-d]pyrimidin-1-yl)-4-fluoro-3-hydroxytetrahydrofuran-2-yl]methyl sulfamate], the IC50 fell in the range of 20 to 50 nM and the inhibition at 0.111 µM was found to be 74%.
As for `Nc1ncnc2c1c(C(F)F)nn2[C@@H]1O[C@H](COS(N)(=O)=O)[C@@H](O)[C@H]1O` [Compound I-25, {(2R,3S,4R,5R)-5-[4-amino-3-(difluoromethyl)-1H-pyrazolo[3,4-d]pyrimidin-1-yl]-3,4-dihydroxytetrahydrofuran-2-yl}methyl Sulfamate], the half-inhibitory concentration (IC50) was in the range of 50 to 100 nM and the inhibition at 0.123 µM is 64%.
For `Cn1ccnc1Sc1nn([C@@H]2O[C@H](COS(N)(=O)=O)[C@@H](O)[C@@H]2F)c2ncnc(N)c12` [Compound I-125, [(2R,3R,4S,5R)-5-{4-amino-3-[(1-methyl-1H-imidazol-2-yl)sulfanyl]-1H-pyrazolo[3,4-d]pyrimidin-1-yl}-4-fluoro-3-hydroxytetrahydrofuran-2-yl]methyl sulfamate], the IC50 lay in the range of 100 to 500 nM and the inhibition at 0.111 µM worked out at 37%.
As for `Nc1ncnc2c1c(SCc1ccccc1)nn2[C@@H]1O[C@H](COS(N)(=O)=O)[C@@H](O)[C@H]1O` [Compound I-52, {(2R,3S,4R,5R)-5-[4-amino-3-(benzylsulfanyl)-1H-pyrazolo[3,4-d]pyrimidin-1-yl]-3,4-dihydroxytetrahydrofuran-2-yl}methyl sulfamate], the IC50 lay in the range of 20 to 50 nM and the inhibition at 0.123 µM was determined as 83%.
Turning to `CSc1nn([C@@H]2O[C@H](COS(N)(=O)=O)[C@@H](O)[C@H]2O)c2ncnc(N)c12` [Compound I-42, {(2R,3S,4R,5R)-5-[4-amino-3-(methylsulfanyl)-1H-pyrazolo[3,4-d]pyrimidin-1-yl]-3,4-dihydroxytetrahydrofuran-2-yl}methyl Sulfamate], the concentration for half-maximal inhibition (IC50) was less than 20 nM and the inhibition at 0.111 µM was found to be 79%.
On to `CC(C)(C)Sc1nn([C@@H]2O[C@H](COS(N)(=O)=O)[C@@H](O)[C@@H]2F)c2ncnc(N)c12` [Compound I-118, {(2R,3R,4S,5R)-5-[4-amino-3-(tert-butylsulfanyl)-1H-pyrazolo[3,4-d]pyrimidin-1-yl]-4-fluoro-3-hydroxytetrahydrofuran-2-yl}methyl sulfamate], for which the IC50 is less than 20 nM and the inhibition at 0.111 µM stood at 86%.
`CCC(C)Sc1nn([C@@H]2O[C@H](COS(N)(=O)=O)[C@@H](O)[C@@H]2F)c2ncnc(N)c12` (single isomer, unassigned) [Compound I-136b]: the half-inhibitory concentration (IC50) is 50 to 100 nM and the inhibition at 0.111 µM is 61%.
Taken in the same sequence, the figures for `Nc1ncnc2c1c(SCc1ccc(F)cc1)nn2[C@@H]1O[C@H](COS(N)(=O)=O)[C@@H](O)[C@H]1O` [Compound I-63, [(2R,3S,4R,5R)-5-{4-amino-3-[(4-fluorobenzyl)sulfanyl]-1H-pyrazolo[3,4-d]pyrimidin-1-yl}-3,4-dihydroxytetrahydrofuran-2-yl]methyl sulfamate] were 20 to 50 nM and 83%.
Consider `CC1CC1CSc1nn([C@@H]2O[C@H](COS(N)(=O)=O)[C@@H](O)[C@@H]2F)c2ncnc(N)c12` (stereo partly shown) [Compound I-140], for which the IC50 lay in the range of 20 to 50 nM and the inhibition at 0.111 µM stood at 75%.
For the compound `Nc1ncnc2c1c(COCc1ccccc1)nn2[C@@H]1O[C@H](COS(N)(=O)=O)[C@@H](O)[C@H]1O` [Compound I-4, [(2R,3S,4R,5R)-5-{4-amino-3-[(benzyloxy)methyl]-1H-pyrazolo[3,4-d]pyrimidin-1-yl}-3,4-dihydroxytetrahydrofuran-2-yl]methyl Sulfamate], the IC50 was in the range of 100 to 500 nM and the inhibition at 0.069 µM was 32%.
The matching figures for `Nc1ncnc2c1c(Oc1ccccc1)nn2[C@@H]1O[C@H](COS(N)(=O)=O)[C@@H](O)[C@H]1O` [Compound I-37, [(2R,3S,4R,5R)-5-(4-amino-3-phenoxy-1H-pyrazolo[3,4-d]pyrimidin-1-yl)-3,4-dihydroxytetrahydrofuran-2-yl]methyl sulfamate]: more than 500 nM and 7%.
On to `CC(C)c1nn([C@@H]2O[C@H](COS(N)(=O)=O)[C@@H](O)[C@H]2O)c2ncnc(N)c12` [Compound I-3, [(2R,3S,4R,5R)-5-(4-amino-3-isopropyl-1H-pyrazolo[3,4-d]pyrimidin-1-yl)-3,4-dihydroxytetrahydrofuran-2-yl]methyl Sulfamate], for which the 50% inhibitory concentration (IC50) was in the range of 100 to 500 nM and the inhibition at 0.069 µM came to 24%.
Turning to `Nc1ncnc2c1c(SC1CCCC1)nn2[C@@H]1O[C@H](COS(N)(=O)=O)[C@@H](O)[C@H]1O` [Compound I-62, {(2R,3S,4R,5R)-5-[4-amino-3-(cyclopentylsulfanyl)-1H-pyrazolo[3,4-d]pyrimidin-1-yl]-3,4-dihydroxytetrahydrofuran-2-yl}methyl sulfamate], the half-maximal inhibitory concentration (IC50) is less than 20 nM and the inhibition at 0.123 µM worked out at 89%.
As to `Nc1ncnc2c1c(Sc1ccc(Cl)cn1)nn2[C@@H]1O[C@H](COS(N)(=O)=O)[C@@H](O)[C@@H]1F` [Compound I-146, [(2R,3R,4S,5R)-5-{4-amino-3-[(5-chloropyridin-2-yl)sulfanyl]-1H-pyrazolo[3,4-d]pyrimidin-1-yl}-4-fluoro-3-hydroxytetrahydrofuran-2-yl]methyl sulfamate], the IC50 was 20 to 50 nM and the inhibition at 0.111 µM turned out to be 86%.
In the case of `Nc1ncnc2c1c(-c1nccs1)nn2[C@@H]1O[C@H](COS(N)(=O)=O)[C@@H](O)[C@H]1O` [Compound I-30, {(2R,3S,4R,5R)-5-[4-amino-3-(1,3-thiazol-2-yl)-1H-pyrazolo[3,4-d]pyrimidin-1-yl]-3,4-dihydroxytetrahydrofuran-2-yl}methyl sulfamate], the IC50 was more than 500 nM and the inhibition at 0.123 µM came out at 15%.
Taken in the same sequence, the figures for `N#CCSc1nn([C@@H]2O[C@H](COS(N)(=O)=O)[C@@H](O)[C@H]2O)c2ncnc(N)c12` [Compound I-90, [(2R,3S,4R,5R)-5-{4-amino-3-[(cyanomethyl)sulfanyl]-1H-pyrazolo[3,4-d]pyrimidin-1-yl}-3,4-dihydroxytetrahydrofuran-2-yl]methyl sulfamate] were 20 to 50 nM and 84%.
Regarding `COc1ccc(Sc2nn([C@H]3C[C@H](O)[C@@H](COS(N)(=O)=O)O3)c3ncnc(N)c23)c(F)c1` [Compound I-178, [(2R,3S,5R)-5-{4-amino-3-[(2-fluoro-4-methoxyphenyl)sulfanyl]-1H-pyrazolo[3,4-d]pyrimidin-1-yl}-3-hydroxytetrahydrofuran-2-yl]methyl sulfamate], the IC50 lay in the range of 20 to 50 nM and the inhibition at 0.111 µM stood at 74%.
Take `Nc1ncnc2c1c(SCCc1ccccc1)nn2[C@@H]1O[C@H](COS(N)(=O)=O)[C@@H](O)[C@H]1O` [Compound I-88, [(2R,3S,4R,5R)-5-{4-amino-3-[(2-phenylethyl)sulfanyl]-1H-pyrazolo[3,4-d]pyrimidin-1-yl}-3,4-dihydroxytetrahydrofuran-2-yl]methyl sulfamate]: the IC50 fell in the range of 20 to 50 nM and the inhibition at 0.123 µM was determined as 78%.
The matching figures for `Nc1ncnc2c1c(Sc1ccncc1)nn2[C@@H]1O[C@H](COS(N)(=O)=O)[C@@H](O)[C@H]1O` [Compound I-66, {(2R,3S,4R,5R)-5-[4-amino-3-(pyridin-4-ylsulfanyl)-1H-pyrazolo[3,4-d]pyrimidin-1-yl]-3,4-dihydroxytetrahydrofuran-2-yl}methyl sulfamate]: 20 to 50 nM and 68%.
As for `COCC#Cc1nn([C@@H]2O[C@H](COS(N)(=O)=O)[C@@H](O)[C@H]2O)c2ncnc(N)c12` [Compound I-11, {(2R,3S,4R,5R)-5-[4-amino-3-(3-methoxyprop-1-yn-1-yl)-1H-pyrazolo[3,4-d]pyrimidin-1-yl]-3,4-dihydroxytetrahydrofuran-2-yl}methyl Sulfamate], the 50% inhibitory concentration (IC50) is more than 500 nM and the inhibition at 0.069 µM worked out at 9%.
